Here are results for seven compounds from ChEMBL document CHEMBL1139430, “Synthesis of a natural product-inspired eight-membered ring lactam library via ring-closing metathesis” (Bioorg Med Chem Lett, 2008).

One assay concerns L1210. Kind of assay: Antiproliferative activity against mouse L1210 cells at day 4 by MTS/PMS assay. It counts as functional, cell-based. The conditions noted are these: L1210, 96 h.
Assay [1] concerns HL-60. Kind of assay: Antiproliferative activity against human HL60 cells at 62.5 to 156.25 uM at day 4 by MTS/PMS assay. The assay is classed as functional.
Assay [2] in a line: Antiproliferative activity against mouse Pan02 cells at day 4 by MTS/PMS assay. It counts as functional, cell-based. To be noted: Pan02, 96 h.
The test system of assay [3] is HL-60. Kind of assay: Antiproliferative activity against human HL60 cells at day 4 by MTS/PMS assay. The assay is classed as functional, cell-based. To be noted: HL-60, 96 h.

`COc1ccc([C@H]2/C=C\C[C@H](NS(=O)(=O)c3cccc4cccnc34)CC(=O)N2Cc2ccc(F)cc2)cc1`: the IC50 (in general, the concentration at which inhibition is half-maximal) with L1210 worked out at 15.4 µM. The “inhibition (INH)” value with HL-60 [1] is reported as less than 50%.
Regarding `COc1ccc(C(=O)N[C@H]2C/C=C\[C@H](c3ccc(OC)cc3)N(Cc3ccc(F)cc3)C(=O)C2)cc1` (relative stereo), the IC50 worked out at 25.2 µM with L1210, 34.9 µM in assay [2] and 40.1 µM with HL-60 [3].
On to `CCCCS(=O)(=O)N[C@H]1C/C=C\[C@H](c2ccc(OC)cc2)N(Cc2ccc(F)cc2)C(=O)C1` (relative stereo), for which 37.9 µM corresponded to half-maximal inhibition with L1210 (IC50). Further, the “inhibition (INH)” value in the assay on HL-60 [1] was less than 50%.
For `COc1ccc([C@H]2/C=C\C[C@H](NS(=O)(=O)c3ccc(C)cc3)CC(=O)N2Cc2ccc(F)cc2)cc1` (relative stereo) the same measures were 11 µM and less than 50%.
Take `COc1ccc([C@H]2/C=C\C[C@H](NC(=O)c3ccccc3)CC(=O)N2Cc2ccc(F)cc2)cc1` (relative stereo): the IC50 with L1210 worked out at 27.1 µM; in assay [2], 40.6 µM; in the assay with HL-60 [3], 54.7 µM.
Turning to `COc1ccc([C@H]2/C=C\C[C@H](NC(=O)C3CCCC3)CC(=O)N2Cc2ccc(F)cc2)cc1` (relative stereo), the IC50 in the assay on L1210 came to 40.1 µM. In addition, in the assay on HL-60 [1], the “inhibition (INH)” value is less than 50%.
In turn, `COc1ccc([C@H]2/C=C\C[C@H](NS(=O)(=O)c3ccc4ccccc4c3)CC(=O)N2Cc2ccc(F)cc2)cc1` (relative stereo) displayed an IC50 in the assay on L1210 of 8.5 µM. Besides, the “inhibition (INH)” value in the assay with HL-60 [1] is less than 50%.
